Reference: the supplement of paper PMC4862054

How the values were obtained:
Assay in all cases: normalised viability (% of control), CellTiter-Blue; higher = more viable cells (about 100 = DMSO control)
[1] = system: CAL-51; conditions: incubation time: 72 h
Summary of the method: (§1)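 Plates were quality-checked by Z'-factor and normalised to vehicle (100) and a positive kill control (0). The underlying assay incubated breast cancer cell lines for 72 h on 384-well plates with compound, then added 2.5 µl CellTiter-Blue for 2 h at 37 °C and read at 560/590 nm. The value is normalised viability at a single listed concentration of the series.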

[2] = system: MDA-MB-468; conditions: incubation time: 72 h
Summary of the method: as §1

[3] = system: Hs578T; conditions: incubation time: 72 h
Summary of the method: as §1

[4] = system: MDA-MB-231; conditions: incubation time: 72 h
Summary of the method: as §1

[5] = system: MDA-MB-436; conditions: incubation time: 72 h
Summary of the method: as §1

[6] = system: MFM-223; conditions: incubation time: 72 h
Summary of the method: as §1

[7] = system: CAL-148; conditions: incubation time: 72 h
Summary of the method: as §1

[8] = system: HCC1937; conditions: incubation time: 72 h
Summary of the method: as §1

[9] = system: HDQ-P1; conditions: incubation time: 72 h
Summary of the method: as §1

[10] = system: CAL-120; conditions: incubation time: 72 h
Summary of the method: as §1

[11] = system: BT-474; conditions: incubation time: 72 h
Summary of the method: as §1

[12] = system: HCC1143; conditions: incubation time: 72 h
Summary of the method: as §1

[13] = system: HCC1599; conditions: incubation time: 72 h
Summary of the method: as §1

[14] = system: SK-BR-3; conditions: incubation time: 72 h
Summary of the method: as §1

[15] = system: MDA-MB-453; conditions: incubation time: 72 h
Summary of the method: as §1

[16] = system: CAL-85-1; conditions: incubation time: 72 h
Summary of the method: as §1

[17] = system: BT-549; conditions: incubation time: 72 h
Summary of the method: as §1

[18] = system: DU-4475; conditions: incubation time: 72 h
Summary of the method: as §1

[19] = system: CAL-51; conditions: 10 nM; incubation time: 72 h
Experimental: (§2)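 DSRT, CellTiter-Blue viability, 72 h incubation. Signal is normalised to DMSO and benzethonium chloride controls. Value is the normalised response at dose 3.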

[20] = system: MDA-MB-468; conditions: 100 nM; incubation time: 72 h
Experimental: as §2

[21] = system: Hs578T; conditions: 100 nM; incubation time: 72 h
Experimental: as §2

[22] = system: MDA-MB-231; conditions: 100 nM; incubation time: 72 h
Experimental: as §2

[23] = system: MDA-MB-436; conditions: 100 nM; incubation time: 72 h
Experimental: as §2

[24] = system: MFM-223; conditions: 100 nM; incubation time: 72 h
Experimental: as §2

[25] = system: CAL-148; conditions: 10 nM; incubation time: 72 h
Experimental: as §2

[26] = system: HCC1937; conditions: 100 nM; incubation time: 72 h
Experimental: as §2

[27] = system: HDQ-P1; conditions: 10 nM; incubation time: 72 h
Experimental: as §2

[28] = system: CAL-120; conditions: 100 nM; incubation time: 72 h
Experimental: as §2

[29] = system: BT-474; conditions: 100 nM; incubation time: 72 h
Experimental: as §2

[30] = system: HCC1143; conditions: 100 nM; incubation time: 72 h
Experimental: as §2

[31] = system: HCC1599; conditions: 100 nM; incubation time: 72 h
Experimental: as §2

[32] = system: SK-BR-3; conditions: 100 nM; incubation time: 72 h
Experimental: as §2

[33] = system: MDA-MB-453; conditions: 10 nM; incubation time: 72 h
Experimental: as §2

[34] = system: CAL-85-1; conditions: 10 nM; incubation time: 72 h
Experimental: as §2

[35] = system: BT-549; conditions: 100 nM; incubation time: 72 h
Experimental: as §2

[36] = system: DU-4475; conditions: 10 nM; incubation time: 72 h
Experimental: as §2

With `COC(=O)C[C@](O)(CCCC(C)(C)O)C(=O)O[C@@H]1C(OC)=C[C@]23CCCN2CCc2cc4c(cc2[C@H]13)OCO4` [Omacetaxine mepesuccinate] the normalised viability ([1]; 3 nM) was 101%, the normalised viability ([1]; 30 nM) was 31.6% and the normalised viability ([1]; 100 nM) was 11.8%. The normalised viability ([2]; 10 nM) was 90.2%, the normalised viability ([2]; 1000 nM) was 4.25% and the normalised viability ([2]; 10000 nM) was 3.02%. For the same compound, the normalised viability ([3]; 10 nM) was 111%, the normalised viability ([3]; 1000 nM) was 1.46% and the normalised viability ([3]; 10000 nM) was 1.1%. It also gave a normalised viability ([4]; 10 nM) of 87.9%, a normalised viability ([4]; 1000 nM) of 6.79% and a normalised viability ([4]; 10000 nM) of 3.89%. The normalised viability ([5]; 10 nM) was 88.5%, the normalised viability ([5]; 1000 nM) was 19% and the normalised viability ([5]; 10000 nM) was 11.7%. For the same compound, the normalised viability ([6]; 10 nM) was 88.3%, the normalised viability ([6]; 1000 nM) was 8.87% and the normalised viability ([6]; 10000 nM) was 4.39%. The normalised viability ([7]; 3 nM) was 96.3%, the normalised viability ([7]; 30 nM) was 26% and the normalised viability ([7]; 100 nM) was 14.8%. It also gave a normalised viability ([8]; 10 nM) of 55.9%, a normalised viability ([8]; 1000 nM) of 13.9% and a normalised viability ([8]; 10000 nM) of 14.3%. It also gave a normalised viability ([9]; 3 nM) of 92.5%, a normalised viability ([9]; 30 nM) of 24.6% and a normalised viability ([9]; 100 nM) of 14.9%. It also gave a normalised viability ([10]; 10 nM) of 69.2%, a normalised viability ([10]; 1000 nM) of 7.92% and a normalised viability ([10]; 10000 nM) of 5.91%. The normalised viability ([11]; 10 nM) was 118%, the normalised viability ([11]; 1000 nM) was 23% and the normalised viability ([11]; 10000 nM) was 13.3%. The normalised viability ([12]; 10 nM) was 87.2%, the normalised viability ([12]; 1000 nM) was 14.2% and the normalised viability ([12]; 10000 nM) was 11%. It also gave a normalised viability ([13]; 10 nM) of 68.9%, a normalised viability ([13]; 1000 nM) of 17% and a normalised viability ([13]; 10000 nM) of 12.9%. For the same compound, the normalised viability ([14]; 10 nM) was 89.4%, the normalised viability ([14]; 1000 nM) was 6.71% and the normalised viability ([14]; 10000 nM) was 3.15%. It also gave a normalised viability ([15]; 3 nM) of 109%, a normalised viability ([15]; 30 nM) of 44.5% and a normalised viability ([15]; 100 nM) of 21.4%. The normalised viability ([16]; 3 nM) was 86.8%, the normalised viability ([16]; 30 nM) was 25.3% and the normalised viability ([16]; 100 nM) was 9.04%. The normalised viability ([17]; 10 nM) was 87.2%, the normalised viability ([17]; 1000 nM) was 7.63% and the normalised viability ([17]; 10000 nM) was 4.5%. It also gave a normalised viability ([18]; 3 nM) of 81%, a normalised viability ([18]; 30 nM) of 2.2% and a normalised viability ([18]; 100 nM) of 4.43%. The normalised viability [19] was 92.8%, the normalised viability [20] was 17.7% and the normalised viability [21] was 6.8%. For the same compound, the normalised viability [22] was 22.1%, the normalised viability [23] was 21.4% and the normalised viability [24] was 31%. It also gave a normalised viability [25] of 67.6%, a normalised viability [26] of 14.9% and a normalised viability [27] of 73%. For the same compound, the normalised viability [28] was 15.1%, the normalised viability [29] was 54.8% and the normalised viability [30] was 37.7%. For the same compound, the normalised viability [31] was 29.4%, the normalised viability [32] was 18.3% and the normalised viability [33] was 90.2%. It also gave a normalised viability [34] of 79.7%, a normalised viability [35] of 19.2% and a normalised viability [36] of 25.1%.
